Experimental findings from patent publication US9073855B2, “BCL-2 selective apoptosis-inducing agents for the treatment of cancer and immune diseases” (AbbVie Inc., priority 2008, dated 2015) are described below.

pKi: −log10 of the molar value. Some results are limits rather than exact numbers.

For one assay, the target named is GST-Bcl-2 (Homo sapiens, UniProt P10415). The experiment in a line: TR-FRET binding assay, GST-Bcl-2 with F-Bak peptide probe. Particulars: for pKi: TR-FRET Binding Affinity; for Binding selectivity ratio (Bcl-XL Ki/Bcl-2 Ki): TR-FRET, Bcl-XL Ki divided by Bcl-2 Ki. Summed up: (§1)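 Compounds were serially diluted in DMSO from a 50 μM starting solution (2× the starting concentration; 10% DMSO). Plates were incubated for 3 h at room temperature, and TR-FRET was read with 340/35 nm excitation and emission at 520/525 nm (F-Bak) and 495/510 nm (Tb antibody). Ki values were calculated using Wang's competitive-binding equation.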
GST-Bcl-2, sequence (P10415 whole entry): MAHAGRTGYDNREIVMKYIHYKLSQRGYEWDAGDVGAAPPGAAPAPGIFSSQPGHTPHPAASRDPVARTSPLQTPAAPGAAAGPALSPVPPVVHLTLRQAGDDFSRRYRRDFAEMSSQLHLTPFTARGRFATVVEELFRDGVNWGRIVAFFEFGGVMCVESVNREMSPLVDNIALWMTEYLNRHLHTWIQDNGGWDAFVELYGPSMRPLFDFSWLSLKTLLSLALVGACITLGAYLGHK

A further assay addresses GST-Bcl-XL (Homo sapiens, UniProt Q07817). The experiment in a line: TR-FRET binding assay, GST-Bcl-XL with F-Bak peptide probe. Particulars: TR-FRET Binding Affinity. The gist of the method: as §1
On the technique in general: In TR-FRET formats the signal depends on donor and acceptor labels being close together.

GST-Bcl-XL, sequence (Q07817 whole entry): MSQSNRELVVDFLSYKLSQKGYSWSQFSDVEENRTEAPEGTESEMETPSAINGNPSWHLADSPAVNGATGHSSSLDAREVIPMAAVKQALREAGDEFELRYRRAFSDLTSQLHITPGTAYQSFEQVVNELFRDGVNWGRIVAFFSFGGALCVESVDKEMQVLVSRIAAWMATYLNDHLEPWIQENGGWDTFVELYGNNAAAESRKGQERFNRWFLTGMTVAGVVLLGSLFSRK

For the compound `CC1(C)CCC(CN2CCN(c3ccc(C(=O)NS(=O)(=O)c4cnc(OCC5CC5(F)F)c(Cl)c4)c(Oc4cccc5[nH]ncc45)c3)CC2)=C(c2ccc(Cl)cc2)C1` (stereo not drawn) [Example 491, N-({5-chloro-6-[(2,2-difluorocyclopropyl)methoxy]pyridin-3-yl}sulfonyl)-4-(4-{[2-(4-chlorophenyl)-4,4-dimethylcyclohex-1-en-1-yl]methyl}piperazin-1-yl)-2-(1H-indazol-4-yloxy)benzamide], on GST-Bcl-2, the pKi is 10.77 and the “Binding selectivity ratio (Bcl-XL Ki/Bcl-2 Ki)” value (“Binding selectivity ratio” below) is on record as 4600.5. This compound also had a pKi at GST-Bcl-XL of 7.11.

Consider `CC1(C)CCC(CN2CCN(c3ccc(C(=O)NS(=O)(=O)c4cnc(OC[C@H]5CC[C@H](C#N)CC5)c(Cl)c4)c(Oc4cccc5[nH]ncc45)c3)CC2)=C(c2ccc(Cl)cc2)C1` [Example 492, N-({5-chloro-6-[(trans-4-cyanocyclohexyl)methoxy]pyridin-3-yl}sulfonyl)-4-(4-{[2-(4-chlorophenyl)-4,4-dimethylcyclohex-1-en-1-yl]methyl}piperazin-1-yl)-2-(1H-indazol-4-yloxy)benzamide], for which, on GST-Bcl-2, the pKi was > 11.00 and the “Binding selectivity ratio” value is given as >4509.6. At GST-Bcl-XL, this compound showed a negative logarithm of the Ki (pKi) of 7.35.

Take `CC1(C)CCC(CN2CCN(c3ccc(C(=O)NS(=O)(=O)c4cnc(OCC5CCC(C)(O)CC5)c(Cl)c4)c(Oc4cccc5[nH]ncc45)c3)CC2)=C(c2ccc(Cl)cc2)C1` (stereo not drawn) [Example 493, N-({5-chloro-6-[(cis-4-hydroxy-4-methylcyclohexyl)methoxy]pyridin-3-yl}sulfonyl)-4-(4-{[2-(4-chlorophenyl)-4,4-dimethylcyclohex-1-en-1-yl]methyl}piperazin-1-yl)-2-(1H-indazol-4-yloxy)benzamide]: the pKi was > 11.00 on GST-Bcl-2 and 7.38 at GST-Bcl-XL. Besides, the “Binding selectivity ratio” value on GST-Bcl-2 was >4188.3.

As for `CC1(C)CCC(CN2CCN(c3ccc(C(=O)NS(=O)(=O)c4cnc(OCC5CCC(C)(O)CC5)c(Cl)c4)c(Oc4cccc5[nH]ncc45)c3)CC2)=C(c2ccc(Cl)cc2)C1` (stereo not drawn) [Example 494, N-({5-chloro-6-[(trans-4-hydroxy-4-methylcyclohexyl)methoxy]pyridin-3-yl}sulfonyl)-4-(4-{[2-(4-chlorophenyl)-4,4-dimethylcyclohex-1-en-1-yl]methyl}piperazin-1-yl)-2-(1H-indazol-4-yloxy)benzamide], at GST-Bcl-2, the pKi was > 11.00 and the “Binding selectivity ratio” value is >1556.6. On GST-Bcl-XL, this compound showed a pKi of 7.81.

As to `CC1(C)CC(c2ccc(Cl)cc2)=C(CN2CCN(c3ccc(C(=O)NS(=O)(=O)c4ccc(OCC5(F)CCOCC5)c(Cl)c4)c(Oc4cccc5[nH]ncc45)c3)CC2)CO1` [Example 496, N-({3-chloro-4-[(4-fluorotetrahydro-2H-pyran-4-yl)methoxy]phenyl}sulfonyl)-4-(4-{[4-(4-chlorophenyl)-6,6-dimethyl-5,6-dihydro-2H-pyran-3-yl]methyl}piperazin-1-yl)-2-(1H-indazol-4-yloxy)benzamide], on GST-Bcl-2, the negative logarithm of the Ki (pKi) was 10.11 and the “Binding selectivity ratio” value was determined as 558.9. For the same compound, the pKi on GST-Bcl-XL was 7.36.

For `CC1(C)CCC(CN2CCN(c3ccc(C(=O)NS(=O)(=O)c4ccc(OCC5(F)CCOCC5)c(C(F)(F)F)c4)c(Oc4cccc5[nH]ncc45)c3)CC2)=C(c2ccc(Cl)cc2)C1` [Example 497, 4-(4-{[2-(4-chlorophenyl)-4,4-dimethylcyclohex-1-en-1-yl]methyl}piperazin-1-yl)-N-({4-[(4-fluorotetrahydro-2H-pyran-4-yl)methoxy]-3-(trifluoromethyl)phenyl}sulfonyl)-2-(1H-indazol-4-yloxy)benzamide], the figures for the pKi at GST-Bcl-2 and at GST-Bcl-XL were 10.09 and 6.91, respectively. In addition, the “Binding selectivity ratio” value on GST-Bcl-2 amounted to 1517.4.

For the compound `CC1(C)CCC(CN2CCN(c3ccc(C(=O)NS(=O)(=O)c4ccc(OCC5CCOCC5)c(Cl)c4)c(Oc4cccc5[nH]ncc45)c3)CC2)=C(c2ccc(Cl)cc2)C1` [Example 498, 4-(4-{[2-(4-chlorophenyl)-4,4-dimethylcyclohex-1-en-1-yl]methyl}piperazin-1-yl)-N-{[3-chloro-4-(tetrahydro-2H-pyran-4-ylmethoxy)phenyl]sulfonyl}-2-(1H-indazol-4-yloxy)benzamide], at GST-Bcl-2, the pKi is > 11.00 and the “Binding selectivity ratio” value was >12491.0. Moreover, at GST-Bcl-XL, the pKi is 6.90.

With `CC1(C)CCC(CN2CCN(c3ccc(C(=O)NS(=O)(=O)c4ccc(OCC5(F)CCOCC5)c(Cl)c4)c(Oc4cccc5[nH]cnc45)c3)CC2)=C(c2ccc(Cl)cc2)C1` [Example 499, 2-(1H-benzimidazol-4-yloxy)-N-({3-chloro-4-[(4-fluorotetrahydro-2H-pyran-4-yl)methoxy]phenyl}sulfonyl)-4-(4-{[2-(4-chlorophenyl)-4,4-dimethylcyclohex-1-en-1-yl]methyl}piperazin-1-yl)benzamide], at GST-Bcl-2, the pKi is > 11.00 and the “Binding selectivity ratio” value was >10415.0. This compound also showed a pKi at GST-Bcl-XL of 6.98.

Turning to `CC1(C)CCC(CN2CCN(c3ccc(C(=O)NS(=O)(=O)c4cnc(OCC5CCOCC5)c(Cl)c4)c(Oc4cccc5[nH]cnc45)c3)CC2)=C(c2ccc(Cl)cc2)C1` [Example 500, 2-(1H-benzimidazol-4-yloxy)-4-(4-{[2-(4-chlorophenyl)-4,4-dimethylcyclohex-1-en-1-yl]methyl}piperazin-1-yl)-N-{[5-chloro-6-(tetrahydro-2H-pyran-4-ylmethoxy)pyridin-3-yl]sulfonyl}benzamide], at GST-Bcl-2, the pKi is > 11.00 and the “Binding selectivity ratio” value is >14734.0. The compound also showed a pKi on GST-Bcl-XL of 6.83.

On to `CC1(C)CCC(CN2CCN(c3ccc(C(=O)NS(=O)(=O)c4ccc(OCC5(F)CCOCC5)c(C#N)c4)c(Oc4cccc5[nH]ncc45)c3)CC2)=C(c2ccc(Cl)cc2)C1` [Example 501, 4-(4-{[2-(4-chlorophenyl)-4,4-dimethylcyclohex-1-en-1-yl]methyl}piperazin-1-yl)-N-({3-cyano-4-[(4-fluorotetrahydro-2H-pyran-4-yl)methoxy]phenyl}sulfonyl)-2-(1H-indazol-4-yloxy)benzamide], for which the pKi is 10.57 on GST-Bcl-2 and 6.79 on GST-Bcl-XL. For the same compound, the “Binding selectivity ratio” value at GST-Bcl-2 came to 6025.7.

With `CC1(C)CCC(CN2CCN(c3ccc(C(=O)NS(=O)(=O)c4ccc(OCC5COCCO5)c(Cl)c4)c(Oc4cccc5[nH]ncc45)c3)CC2)=C(c2ccc(Cl)cc2)C1` (stereo not drawn) [Example 502, N-{[3-chloro-4-(1,4-dioxan-2-ylmethoxy)phenyl]sulfonyl}-4-(4-{[2-(4-chlorophenyl)-4,4-dimethylcyclohex-1-en-1-yl]methyl}piperazin-1-yl)-2-(1H-indazol-4-yloxy)benzamide], on GST-Bcl-2, the negative logarithm of the Ki (pKi) is 10.60 and the “Binding selectivity ratio” value was 5754.1. On GST-Bcl-XL, this compound showed a pKi of 6.84.

Regarding `CC1(C)CCC(CN2CCN(c3ccc(C(=O)NS(=O)(=O)c4cnc(OC[C@@H]5CN(C6CC6)CCO5)c(Cl)c4)c(Oc4cccc5[nH]cnc45)c3)CC2)=C(c2ccc(Cl)cc2)C1` [Example 503, 2-(1H-benzimidazol-4-yloxy)-N-[(5-chloro-6-{[(2S)-4-cyclopropylmorpholin-2-yl]methoxy}pyridin-3-yl)sulfonyl]-4-(4-{[2-(4-chlorophenyl)-4,4-dimethylcyclohex-1-en-1-yl]methyl}piperazin-1-yl)benzamide], the pKi on GST-Bcl-2 is 10.21; at GST-Bcl-XL it was 6.83. At GST-Bcl-2, the “Binding selectivity ratio” value is 2356.5.

Broadly, the pKi is the negative decadic logarithm of the Ki, by convention in mol/L. High values mean a small Ki, low ones a large Ki.
